The assay concerns MV-4-11 cells. Briefly: Gene expression microarray analysis (Affymetrix PrimeView) and GSEA. Type of assay: cell-based, human. Details: RFU PODN (11730768_x_at) / Fold change /veh PODN (11730768_x_at) / RFU LINC00158 (11744669_a_at) / Fold change /veh LINC00158 (11744669_a_at) / RFU DUSP10 (11751237_a_at) / Fold change /veh DUSP10 (11751237_a_at) / RFU ID3 (11757404_x_at) / Fold change /veh ID3 (11757404_x_at) / RFU PLEKHG5 (11737974_s_at) / Fold change /veh PLEKHG5 (11737974_s_at) / RFU LRRC4B (11730491_at) / Fold change /veh LRRC4B (11730491_at) / RFU GIMAP4 (11747438_a_at) / Fold change /veh GIMAP4 (11747438_a_at) / RFU KRT8 (11758183_x_at) / Fold change /veh KRT8 (11758183_x_at) / RFU CNN1 (11734310_a_at) / Fold change /veh CNN1 (11734310_a_at) / RFU VPS37D (11726825_at) / Fold change /veh VPS37D (11726825_at) / RFU C10orf10 (11716522_x_at) / Fold change /veh C10orf10 (11716522_x_at) / RFU KIR2DL2 /// KIR2DL4 /// KIR2DL5A /// KIR2DL5B /// KIR2DS1 /// KIR2DS2 /// KIR2DS3 /// KIR2DS4 /// KIR3DL3 /// KIR3DL3 /// KIR3DS1 (11738374_at) / Fold change /veh KIR2DL2 /// KIR2DL4 /// KIR2DL5A /// KIR2DL5B /// KIR2DS1 /// KIR2DS2 /// KIR2DS3 /// KIR2DS4 /// KIR3DL3 /// KIR3DL3 /// KIR3DS1 (11738374_at) / RFU C1QL1 (11718748_at) / Fold change /veh C1QL1 (11718748_at) / RFU TMPRSS4 (11747572_a_at) / Fold change /veh TMPRSS4 (11747572_a_at) / RFU HAMP (11756126_x_at) / Fold change /veh HAMP (11756126_x_at) / RFU RNFT2 (11725882_a_at) / Fold change /veh RNFT2 (11725882_a_at) / RFU NR4A2 (11747474_a_at) / Fold change /veh NR4A2 (11747474_a_at) / RFU ABCC12 (11746883_a_at) / Fold change /veh ABCC12 (11746883_a_at) / RFU TMEM136 (11760407_x_at) / Fold change /veh TMEM136 (11760407_x_at) / RFU CLDN22 /// WWC2 (11732394_at) / Fold change /veh CLDN22 /// WWC2 (11732394_at) / RFU HLA-DPB1 (11760878_x_at) / Fold change /veh HLA-DPB1 (11760878_x_at) / RFU SPINT1 (11716480_a_at) / Fold change /veh SPINT1 (11716480_a_at) / RFU GAP43 (11754022_s_at) / Fold change /veh GAP43 (11754022_s_at) / RFU A4GNT (11735810_at) / Fold change /veh A4GNT (11735810_at) / RFU PRB3 (11715151_x_at) / Fold change /veh PRB3 (11715151_x_at) / RFU TUBB4B (11761932_at) / Fold change /veh TUBB4B (11761932_at) / RFU CAPN14 (11732068_a_at) / Fold change /veh CAPN14 (11732068_a_at) / RFU TMCC2 (11721928_a_at) / Fold change /veh TMCC2 (11721928_a_at) / RFU IRGQ (11745062_a_at) / Fold change /veh IRGQ (11745062_a_at) / RFU FAM174B (11720279_a_at) / Fold change /veh FAM174B (11720279_a_at) / RFU TMPRSS4 (11748680_a_at) / Fold change /veh TMPRSS4 (11748680_a_at) / RFU FAM212B (11763350_a_at) / Fold change /veh FAM212B (11763350_a_at) / RFU PLEKHG5 (11743358_a_at) / Fold change /veh PLEKHG5 (11743358_a_at) / RFU ZSCAN30 (11745921_a_at) / Fold change /veh ZSCAN30 (11745921_a_at) / RFU CMKLR1 (11741424_a_at) / Fold change /veh CMKLR1 (11741424_a_at) / RFU LOC101060620 /// MAPK8IP1 (11723275_at) / Fold change /veh LOC101060620 /// MAPK8IP1 (11723275_at) / RFU SPTSSB (11747773_x_at) / Fold change /veh SPTSSB (11747773_x_at) / RFU PRSS12 (11739890_at) / Fold change /veh PRSS12 (11739890_at) / RFU BIN1 (11741810_x_at) / Fold change /veh BIN1 (11741810_x_at) / RFU WNT11 (11732464_a_at) / Fold change /veh WNT11 (11732464_a_at) / RFU C10orf10 (11716521_a_at) / Fold change /veh C10orf10 (11716521_a_at) / RFU C5orf56 (11738089_at) / Fold change /veh C5orf56 (11738089_at) / RFU CYB561 (11721691_x_at) / Fold change /veh CYB561 (11721691_x_at) / RFU ANKRD19P (11752326_a_at) / Fold change /veh ANKRD19P (11752326_a_at) / RFU OR2T12 /// OR2T33 /// OR2T8 (11738714_s_at) / Fold change /veh OR2T12 /// OR2T33 /// OR2T8 (11738714_s_at) / RFU VCAN (11748164_a_at) / Fold change /veh VCAN (11748164_a_at) / RFU JSRP1 (11732532_at) / Fold change /veh JSRP1 (11732532_at) / RFU KRTAP10-11 (11738290_x_at) / Fold change /veh KRTAP10-11 (11738290_x_at) / RFU MYO3A (11730013_a_at) / Fold change /veh MYO3A (11730013_a_at) / RFU EBF3 (11725865_a_at) / Fold change /veh EBF3 (11725865_a_at) / RFU CAMK2N1 (11719241_x_at) / Fold change /veh CAMK2N1 (11719241_x_at) / RFU C5orf56 (11738088_a_at) / Fold change /veh C5orf56 (11738088_a_at) / RFU OLFML3 (11715873_a_at) / Fold change /veh OLFML3 (11715873_a_at) / RFU LOC100653217 /// NTM (11731650_a_at) / Fold change /veh LOC100653217 /// NTM (11731650_a_at) / RFU MAPK11 (11762145_a_at) / Fold change /veh MAPK11 (11762145_a_at) / RFU FIZ1 (11724087_x_at) / Fold change /veh FIZ1 (11724087_x_at) / RFU OASL (11726364_x_at) / Fold change /veh OASL (11726364_x_at) / RFU SOX15 (11748057_x_at) / Fold change /veh SOX15 (11748057_x_at) / RFU CD79A (11719716_a_at) / Fold change /veh CD79A (11719716_a_at) / RFU HIST1H1D (11736915_at) / Fold change /veh HIST1H1D (11736915_at) / RFU CASKIN2 (11723855_a_at) / Fold change /veh CASKIN2 (11723855_a_at) / RFU LOC730098 (11760151_x_at) / Fold change /veh LOC730098 (11760151_x_at) / RFU OR4N2 (11742367_at) / Fold change /veh OR4N2 (11742367_at) / RFU PRRT2 (11749266_a_at) / Fold change /veh PRRT2 (11749266_a_at) / RFU SNX32 (11753110_a_at) / Fold change /veh SNX32 (11753110_a_at) / RFU CDHR5 (11726645_a_at) / Fold change /veh CDHR5 (11726645_a_at) / RFU RCAN1 (11760418_a_at) / Fold change /veh RCAN1 (11760418_a_at) / RFU FAM167A (11723789_a_at) / Fold change /veh FAM167A (11723789_a_at) / RFU FAM26E (11764081_at) / Fold change /veh FAM26E (11764081_at) / RFU ISYNA1 (11749810_s_at) / Fold change /veh ISYNA1 (11749810_s_at) / RFU ACY1 (11761880_at) / Fold change /veh ACY1 (11761880_at) / RFU 11764098_at / Fold change /veh 11764098_at / RFU SAMD14 (11745864_x_at) / Fold change /veh SAMD14 (11745864_x_at) / RFU NPB (11741838_a_at) / Fold change /veh NPB (11741838_a_at) / RFU TMPRSS6 (11731388_a_at) / Fold change /veh TMPRSS6 (11731388_a_at) / RFU KRTAP10-2 (11738614_at) / Fold change /veh KRTAP10-2 (11738614_at) / RFU ARHGAP8 /// PRR5-ARHGAP8 (11727945_x_at) / Fold change /veh ARHGAP8 /// PRR5-ARHGAP8 (11727945_x_at) / RFU KRTAP5-7 /// NADSYN1 (11734609_at) / Fold change /veh KRTAP5-7 /// NADSYN1 (11734609_at) / RFU RASL12 (11751679_a_at) / Fold change /veh RASL12 (11751679_a_at) / RFU CDKN2B (11736163_a_at) / Fold change /veh CDKN2B (11736163_a_at) / RFU PRF1 (11729649_at) / Fold change /veh PRF1 (11729649_at) / RFU, ZNF638 /// ZNF638-IT1 / Fold change vs veh, ZNF638 /// ZNF638-IT1 / RFU, PANK3 / Fold change vs veh, PANK3 / RFU, SH3YL1 / Fold change vs veh, SH3YL1 / RFU, ZEB2 / Fold change vs veh, ZEB2 / RFU, NRIP1 / Fold change vs veh, NRIP1 / RFU, PTTG1IP / Fold change vs veh, PTTG1IP / RFU, CAPN2 / Fold change vs veh, CAPN2 / RFU, MED14 / Fold change vs veh, MED14 / RFU, SNORA58 / Fold change vs veh, SNORA58 / RFU, C1orf63 / Fold change vs veh, C1orf63 / RFU, LRRFIP1 / Fold change vs veh, LRRFIP1 / RFU, NDUFAF7 / Fold change vs veh, NDUFAF7 / RFU, SLC12A2 / Fold change vs veh, SLC12A2 / RFU, IBTK / Fold change vs veh, IBTK / RFU, ESF1 / Fold change vs veh, ESF1 / Fold change vs veh, TMEM50B / RFU, TAOK1 / Fold change vs veh, TAOK1 / RFU, ACBD3 / Fold change vs veh, ACBD3 / RFU, TMA16 / Fold change vs veh, TMA16 / RFU, RWDD3 / Fold change vs veh, RWDD3 / RFU, BCAT1 / Fold change vs veh, BCAT1 / RFU, EDEM3 / Fold change vs veh, EDEM3 / RFU, TMEM33 / Fold change vs veh, TMEM33 / RFU, WDR75 / Fold change vs veh, WDR75 / RFU, AHCTF1 / Fold change vs veh, AHCTF1 / RFU, TFRC / Fold change vs veh, TFRC / RFU, ZDHHC17 / Fold change vs veh, ZDHHC17 / RFU, NOM1 / Fold change vs veh, NOM1 / RFU, ARL8B / Fold change vs veh, ARL8B / RFU, ZBTB11 / Fold change vs veh, ZBTB11 / RFU, TAMM41 / Fold change vs veh, TAMM41 / RFU, KIAA1704 /// LOC100996395 / Fold change vs veh, KIAA1704 /// LOC100996395 / RFU, ING1 / Fold change vs veh, ING1 / RFU, TRMT61B / Fold change vs veh, TRMT61B / RFU, FUBP3 / Fold change vs veh, FUBP3 / RFU, TP53 / Fold change vs veh, TP53 / RFU, TNKS2 / Fold change vs veh, TNKS2 / RFU, ZFP14 / Fold change vs veh, ZFP14 / RFU, ACTR2 / Fold change vs veh, ACTR2 / RFU, PPP3R1 / Fold change vs veh, PPP3R1 / RFU, PIK3R1 / Fold change vs veh, PIK3R1 / RFU, HNRNPA1 / Fold change vs veh, HNRNPA1 / RFU, RNF170 / Fold change vs veh, RNF170 / RFU, ZNF28 / Fold change vs veh, ZNF28 / RFU, RNGTT / Fold change vs veh, RNGTT / RFU, OGT / Fold change vs veh, OGT / RFU, BRD1 / Fold change vs veh, BRD1 / RFU, MARS / Fold change vs veh, MARS / RFU, ZNF655 / Fold change vs veh, ZNF655 / RFU, FAHD1 / Fold change vs veh, FAHD1 / RFU, BDP1 / Fold change vs veh, BDP1 / RFU, LRRCC1 / Fold change vs veh, LRRCC1 / RFU, ARID1A / Fold change vs veh, ARID1A / RFU, ZNF146 / Fold change vs veh, ZNF146 / RFU, ZNF330 / Fold change vs veh, ZNF330 / RFU, GPN3 / Fold change vs veh, GPN3 / RFU, C9orf123 / Fold change vs veh, C9orf123 / RFU, N4BP2L2 / Fold change vs veh, N4BP2L2 / RFU, ARFIP1 / Fold change vs veh, ARFIP1 / RFU, FAM179B / Fold change vs veh, FAM179B / RFU, BCL10 / Fold change vs veh, BCL10 / RFU, UHRF1BP1L / Fold change vs veh, UHRF1BP1L / RFU, BET1 / Fold change vs veh, BET1 / RFU, CNOT2 / Fold change vs veh, CNOT2 / RFU, ZNF268 / Fold change vs veh, ZNF268 / Fold change vs veh, ZNF507 / RFU, DGCR2 / Fold change vs veh, DGCR2 / RFU, WDSUB1 / Fold change vs veh, WDSUB1 / Fold change vs veh, HSP90B1 /// MIR3652 / RFU, ADSS / Fold change vs veh, ADSS / RFU, GK / Fold change vs veh, GK / RFU, ZNF148 / Fold change vs veh, ZNF148 / RFU, TAF9 / Fold change vs veh, TAF9 / RFU, SLC1A5 / Fold change vs veh, SLC1A5 / RFU, SLMO2 / Fold change vs veh, SLMO2 / RFU, ABCC4 / Fold change vs veh, ABCC4 / RFU, LOC101060439 /// RAP1B / Fold change vs veh, LOC101060439 /// RAP1B / RFU, RFX7 / Fold change vs veh, RFX7 / RFU, GTPBP10 / Fold change vs veh, GTPBP10 / RFU, CNEP1R1 / Fold change vs veh, CNEP1R1 / RFU, BIVM-ERCC5 /// ERCC5 / Fold change vs veh, BIVM-ERCC5 /// ERCC5 / RFU, ILF3 / Fold change vs veh, ILF3 / RFU 11762660_at / Fold change /veh 11762660_at / RFU VCAN (11757783_s_at) / Fold change /veh VCAN (11757783_s_at) / RFU DDX43 (11728927_at) / Fold change /veh DDX43 (11728927_at) / RFU KRT8 (11758188_x_at) / Fold change /veh KRT8 (11758188_x_at) / RFU NKD1 (11759106_at) / Fold change /veh NKD1 (11759106_at) / RFU SRD5A1 (11742802_a_at) / Fold change /veh SRD5A1 (11742802_a_at) / RFU TPSAB1 /// TPSB2 (11721975_s_at) / Fold change /veh TPSAB1 /// TPSB2 (11721975_s_at) / RFU GSTM3 (11746129_a_at) / Fold change /veh GSTM3 (11746129_a_at) / RFU IL23R (11737362_x_at) / Fold change /veh IL23R (11737362_x_at) / RFU TMEM51 (11727254_a_at) / Fold change /veh TMEM51 (11727254_a_at) / RFU PIWIL2 (11732686_x_at) / Fold change /veh PIWIL2 (11732686_x_at) / RFU ORM1 (11744905_x_at) / Fold change /veh ORM1 (11744905_x_at) / RFU CCDC152 (11743942_at) / Fold change /veh CCDC152 (11743942_at) / RFU ECM1 (11717891_a_at) / Fold change /veh ECM1 (11717891_a_at) / RFU IL23R (11748794_a_at) / Fold change /veh IL23R (11748794_a_at) / RFU TNFAIP8L3 (11732012_x_at) / Fold change /veh TNFAIP8L3 (11732012_x_at) / RFU MBOAT4 (11741988_at) / Fold change /veh MBOAT4 (11741988_at) / RFU 11764193_at / Fold change /veh 11764193_at / RFU TMEM53 (11763286_at) / Fold change /veh TMEM53 (11763286_at) / RFU MAGEB2 (11727129_at) / Fold change /veh MAGEB2 (11727129_at) / RFU TMEM200A (11744735_a_at) / Fold change /veh TMEM200A (11744735_a_at) / RFU CCDC152 (11751479_a_at) / Fold change /veh CCDC152 (11751479_a_at) / RFU FAM211A (11726209_a_at) / Fold change /veh FAM211A (11726209_a_at) / RFU RGS16 (11746705_a_at) / Fold change /veh RGS16 (11746705_a_at) / RFU VCAN (11755009_s_at) / Fold change /veh VCAN (11755009_s_at) / RFU RHOB (11743442_s_at) / Fold change /veh RHOB (11743442_s_at) / RFU RGS16 (11720943_a_at) / Fold change /veh RGS16 (11720943_a_at) / RFU RGS16 (11720944_at) / Fold change /veh RGS16 (11720944_at) / RFU, VPS4B / Fold change vs veh, VPS4B / RFU, CREB1 / Fold change vs veh, CREB1 / RFU, DNAJC13 / Fold change vs veh, DNAJC13 / RFU, GNAQ / Fold change vs veh, GNAQ / RFU, CDK5R1 / Fold change vs veh, CDK5R1 / RFU, ZRANB3 / Fold change vs veh, ZRANB3 / RFU, CUL4A / Fold change vs veh, CUL4A / RFU, CCNY / Fold change vs veh, CCNY / RFU, UFL1 / Fold change vs veh, UFL1 / RFU, COG3 / Fold change vs veh, COG3 / RFU, DIAPH2 / Fold change vs veh, DIAPH2 / RFU, SKA2 / Fold change vs veh, SKA2 / RFU, AFF3 / Fold change vs veh, AFF3 / RFU, LMF1 / Fold change vs veh, LMF1 / RFU, IPO11 / Fold change vs veh, IPO11 / RFU, DFFB / Fold change vs veh, DFFB / RFU, FOXP1 / Fold change vs veh, FOXP1 / RFU, CARD8 / Fold change vs veh, CARD8 / RFU, STRN3 / Fold change vs veh, STRN3 / RFU, ADK / Fold change vs veh, ADK / RFU, RASSF2 / Fold change vs veh, RASSF2 / RFU, WIPF1 / Fold change vs veh, WIPF1 / RFU, LARP1B / Fold change vs veh, LARP1B / RFU, RASA1 / Fold change vs veh, RASA1 / RFU, RB1 / Fold change vs veh, RB1 / RFU, PPFIA1 / Fold change vs veh, PPFIA1 / RFU, MAT2A / Fold change vs veh, MAT2A / RFU, CCT5 / Fold change vs veh, CCT5 / RFU, WDR92 / Fold change vs veh, WDR92 / RFU, CUX1 / Fold change vs veh, CUX1 / RFU, TTC7A / Fold change vs veh, TTC7A / RFU, TMEM135 / Fold change vs veh, TMEM135 / RFU, DEPTOR / Fold change vs veh, DEPTOR / RFU, CPM / Fold change vs veh, CPM / RFU, DNAJB6 / Fold change vs veh, DNAJB6 / RFU, CACNA2D3 / Fold change vs veh, CACNA2D3 / RFU, DTX4 / Fold change vs veh, DTX4 / RFU, TFCP2 / Fold change vs veh, TFCP2 / RFU, GMCL1 /// GMCL1P1 / Fold change vs veh, GMCL1 /// GMCL1P1 / RFU, AEBP2 / Fold change vs veh, AEBP2 / RFU, SNHG1 /// SNORD22 /// SNORD25 /// SNORD26 /// SNORD27 /// SNORD28 /// SNORD29 /// SNORD31 / Fold change vs veh, SNHG1 /// SNORD22 /// SNORD25 /// SNORD26 /// SNORD27 /// SNORD28 /// SNORD29 /// SNORD31 / Fold change (Aza/veh), C12orf56 (ProbeSet 11735607_a_at) / Fold change (ACY-1035/veh), C12orf56 (ProbeSet 11735607_a_at) / Fold change (Aza/veh), FGFR1OP (ProbeSet 11751329_s_at) / Fold change (ACY-1035/veh), FGFR1OP (ProbeSet 11751329_s_at) / Fold change (Aza/veh), VPS36 (ProbeSet 11739960_a_at) / Fold change (ACY-1035/veh), VPS36 (ProbeSet 11739960_a_at) / RFU SYPL1 (11715823_x_at) / Fold change /veh SYPL1 (11715823_x_at) / RFU IGFBP7 (11715501_s_at) / Fold change /veh IGFBP7 (11715501_s_at) / RFU REEP3 (11722064_at) / Fold change /veh REEP3 (11722064_at) / RFU IGLL1 (11728026_x_at) / Fold change /veh IGLL1 (11728026_x_at): dose or concentration left out as unconfirmed. The following applies: MV-4-11 cells, 48 hours.

The text below walks through data of article PMC5218480 (PLoS ONE, 2017).

In the case of `Nc1ccc(-c2cccs2)cc1NC(=O)c1ccc2c(c1)cc(C1CC1)n2CCN1CCOCC1` [ACY-1035], the “Fold change /veh IRGQ (11745062_a_at)” value was 0.91.
